Positions of bridges follow the written chain, without caps; N, C: chain ends. Non-standard residues stand in square brackets, D forms with d. Residues, ends and D or L forms follow the SMILES beside them. *: point of attachment. X2 = O=C(c1ccccc1)c1ccc(OCCCC(=O)*)cc1; X1 = O=C(CCCOc1ccc(Cc2ccccc2)cc1)*; NMeF = CN[C@@H](Cc1ccccc1)C(=O)O; NMeL = CN[C@@H](CC(C)C)C(=O)O; NMeS = CN[C@@H](CO)C(=O)O; Abu = CC[C@H](N)C(=O)O; Dap = NC[C@H](N)C(=O)O; Ava = NCCCCC(=O)O; Mpa = O=C(O)CCS
Columns and labels:
[1] = Inhibition of Staphylococcus aureus AgrC2
[2] = Inhibition of Staphylococcus aureus AgrC1
[3] = Inhibition of Staphylococcus aureus AgrC3
[4] = Inhibition of Staphylococcus aureus AgrC4
[5] = Activation of Staphylococcus aureus AgrC1
[6] = Activation of Staphylococcus aureus AgrC4
[7] = tested on: Staphylococcus aureus; assay: Inhibition of Staphylococcus aureus AgrC1-mediated RNA3 promoter activation at 12 uM
[8] = Inhibition of Staphylococcus aureus AgrC1-mediated RNA3 promoter activation

| IC50 [1] [nM] | IC50 [2] [nM] | IC50 [3] [nM] | Structure (SMILES) | other results |
| --- | --- | --- | --- | --- |
|  |  | 980 | O=C(Nc1ccc2c(c1)OCO2)C(c1ccccc1)N1CCC(Cc2ccccc2)CC1 (stereo not given) |  |
|  |  | 980 | CC1CCN(C(C(=O)Nc2ccc3c(c2)OCO3)c2ccccc2)CC1 (stereo not given) |  |
|  | 1290 |  | CCc1oc2ccccc2c1C(=O)c1ccc(O)cc1 [BENZARONE] |  |
|  | 130 |  | CCc1oc2ccccc2c1C(=O)c1cc(Br)c(O)c(Br)c1 [BENZBROMARONE] |  |
| 8 | 930 | 10 | CC[C@H](C)[C@@H]1NC(=O)[C@H](Cc2ccccc2)NC(=O)[C@H](Cc2ccc(O)cc2)NC(=O)[C@@H](NC(C)=O)CSC(=O)[C@H](CCSC)NC1=O (Ac-CYFIM; thioester 1-C) | IC50 [4]: 4100 nM |
|  |  | 1260 | O=C(Nc1ccc2c(c1)OCO2)C(c1ccccc1)N1CCCCC1 (stereo not given) |  |
|  | < 1000 |  | CC(C)c1ccc(S(=O)(=O)c2nnn3c2nc(O)c2ccccc23)cc1 [SAVIRIN] |  |
|  |  | 130 | CC1CCCN(C(C(=O)Nc2ccc3c(c2)OCCO3)c2ccccc2)C1 (stereo not given) | inhibition [7]: > 90%; IC50 [8]: 100 nM |
|  |  | 160 | CC1CCCN(C(C(=O)Nc2ccc3c(c2)OCO3)c2ccccc2)C1 (stereo not given) |  |
|  | 780 |  | CCOC(=O)c1c(C)oc2cc(-c3cc(Br)c(O)c(Br)c3)ccc12 |  |
|  | 540 |  | CCCCc1oc2ccccc2c1C(=O)c1ccc(O)cc1 |  |

Further lines, the compound ahead of its results:

| Structure (SMILES) | IC50 [1] [nM] | IC50 [2] [nM] | IC50 [3] [nM] | other results |
| --- | --- | --- | --- | --- |
| CC(=O)N[C@H]1CSC(=O)[C@H](Cc2ccccc2)NC(=O)[C@H](CC(C)C)NC(=O)[C@H](CO)N(C)C(=O)[C@H](CO)NC1=O (Ac-CS[NMeS]LF; thioester 1-C) | 1050 | 319 |  |  |
| CC(=O)N[C@H]1CSC(=O)[C@H](Cc2ccccc2)NC(=O)[C@H](CC(C)C)NC(=O)[C@H](CO)NC(=O)[C@H](CO)NC1=O (Ac-CSSLF; thioester 1-C) | 230 | 260 | 4 | IC50 [4]: 150 nM |
| CC[C@H](C)[C@@H]1NC(=O)[C@H](Cc2ccccc2)NC(=O)[C@H](CC(=O)O)NC(=O)[C@@H](NC(C)=O)CSC(=O)[C@H](CCSC)NC1=O (Ac-CDFIM; thioester 1-C) | 47 |  | 240 | EC50 [5]: 5800 nM |
| CC1CCN(C(C(=O)Nc2ccc(C(C)C)cc2)c2ccc3c(c2)OCO3)CC1 (stereo not given) |  |  | 720 |  |
| CC(=O)N[C@H]1CSC(=O)[C@H](Cc2ccccc2)NC(=O)[C@H](CC(C)C)NC(=O)CCCCNC1=O (Ac-C[Ava]LF; thioester 1-C) | 50700 | 1140 |  |  |
| CC(=O)N[C@H]1CNC(=O)[C@H](Cc2ccccc2)NC(=O)[C@H](CC(C)C)NC(=O)[C@H](CO)NC(=O)[C@H](CO)NC1=O (Ac-[Dap]SSLF; lactam 1-C) | 167000 | 1390 |  |  |
| CC(=O)N[C@H]1CSC(=O)[C@H](Cc2ccccc2)NC(=O)[C@H](CC(C)C)N(C)C(=O)[C@H](CO)NC(=O)[C@H](CO)NC1=O (Ac-CSS[NMeL]F; thioester 1-C) | > 30000 | > 30000 |  |  |
| CC[C@H](C)[C@@H]1NC(=O)[C@H](Cc2ccccc2)NC(=O)[C@H](C)NC(=O)[C@@H](NC(=O)[C@@H](NC(=O)[C@H](CO)NC(=O)[C@@H](N)Cc2ccc(O)cc2)[C@@H](C)O)CSC(=O)[C@H](CCSC)NC1=O (H-YSTCAFIM; thioester 4-C) | 8 | 5 | 0.3 | IC50 [4]: 3 nM |
| CC(=O)N[C@H]1CSC(=O)[C@H](Cc2ccccc2)NC(=O)[C@H](CC(C)C)NC(=O)[C@H](CO)NC(=O)CNC1=O (Ac-CGSLF; thioester 1-C) | 1160 | 189 |  |  |
| CC(=O)N[C@H]1CSC(=O)[C@H](Cc2ccccc2)NC(=O)[C@H](CC(C)C)NC(=O)[C@H](CO)NC(=O)[C@H](CO)N(C)C1=O (Ac-C[NMeS]SLF; thioester 1-C) | 7880 | 639 |  |  |
| CC(C)c1ccc(NC(=O)C(c2ccc3c(c2)OCO3)N2CCCCC2)cc1 (stereo not given) |  |  | 250 |  |
| CC(C)C[C@@H]1NC(=O)[C@H](CO)NC(=O)[C@H](CO)NC(=O)CCSC(=O)[C@H](Cc2ccccc2)N(C)C1=O ([Mpa]SSL[NMeF]; thioester 1-C) | 47300 | 1680 |  |  |
| COc1ccc(NC(=O)C(c2cc3c(cc2[N+](=O)[O-])OCO3)N2CC(C)CC(C)C2)cc1 (stereo not given) |  |  | 1310 |  |
| CC[C@H](C)[C@@H]1NC(=O)[C@H](Cc2ccccc2)NC(=O)[C@H](CC(=O)O)NC(=O)[C@@H](NC(=O)[C@@H](NC(=O)[C@H](CO)NC(=O)[C@@H](N)Cc2ccc(O)cc2)[C@@H](C)O)CSC(=O)[C@H](CCSC)NC1=O (H-YSTCDFIM; thioester 4-C) | 25 |  | 3 | EC50 [6]: 26000 nM; EC50 [5]: 28 nM |
| CC[C@@H]1NC(=O)[C@@H](NC(=O)[C@@H](NC(=O)[C@H](CO)NC(=O)[C@@H](N)Cc2ccc(O)cc2)[C@@H](C)O)CSC(=O)[C@H](CCSC)NC(=O)[C@H]([C@@H](C)CC)NC(=O)[C@H](Cc2ccccc2)NC1=O (H-YSTC[Abu]FIM; thioester 4-C) | 2.8 | 137 |  |  |
| CC(=O)N[C@H]1CSC(=O)[C@H](Cc2ccccc2)NC(=O)[C@H](CC(C)C)NC(=O)CNC(=O)CNC1=O (Ac-CGGLF; thioester 1-C) | 238 | 77 |  |  |
| CC[C@H](C)[C@@H]1NC(=O)[C@H](Cc2ccccc2)NC(=O)[C@H](C)NC(=O)[C@@H](NC(=O)[C@@H](NC(=O)[C@H](CO)NC(=O)CCCOc2ccc(Cc3ccccc3)cc2)[C@@H](C)O)CSC(=O)[C@H](CCSC)NC1=O (X1-STCAFIM; thioester 3-C) | 19 | 295 |  |  |
| CCCCCCCc1cc(O)c2ccccc2[n+]1[O-] |  | 1300 |  |  |
| CC[C@H](C)[C@@H]1NC(=O)[C@H](Cc2ccccc2)NC(=O)[C@H](C)NC(=O)[C@@H](NC(=O)[C@@H](NC(=O)[C@H](CO)NC(=O)CCCOc2ccc(C(=O)c3ccccc3)cc2)[C@@H](C)O)CSC(=O)[C@H](CCSC)NC1=O (X2-STCAFIM; thioester 3-C) | 18 | 303 |  |  |
| CC(=O)N[C@H]1CSC(=O)[C@H](Cc2ccccc2)NC(=O)[C@H](CC(C)C)NC(=O)CNC(=O)[C@H](CO)NC1=O (Ac-CSGLF; thioester 1-C) | 194 | 40 |  |  |
| CC(=O)N[C@H]1CSC(=O)[C@H](Cc2ccccc2)N(C)C(=O)[C@H](CC(C)C)NC(=O)[C@H](CO)NC(=O)[C@H](CO)NC1=O (Ac-CSSL[NMeF]; thioester 1-C) | > 30000 | > 30000 |  |  |
| CC[C@H](C)[C@@H]1NC(=O)[C@H](Cc2ccccc2)NC(=O)[C@H](C)NC(=O)[C@@H](NC(C)=O)CSC(=O)[C@H](CCSC)NC1=O (Ac-CAFIM; thioester 1-C) | 5 | 5 | 0.1 | IC50 [4]: 5 nM |

— ChEMBL document CHEMBL2331293, “Attenuating Staphylococcus aureus virulence gene regulation: a medicinal chemistry perspective” (J Med Chem, 2013)
